Reference: patent US5079241A, “Cephalosporin derivatives and pharmaceutical compositions in which they are present” (Sanofi, priority 1987, dated 1992)
Converted amounts (≈) assume the structure as drawn.

Columns and labels:
[1] = pharmacokinetic behavior in baboons, 20 mg/kg (Tables 5 and 7); assay type: in vivo; conditions: for Plasma concentration at 24 h / Plasma concentration at 48 h / Cmax / half-life / AUC(0-inf) / dose excreted at 6 h: 20 mg/kg (Table 7); for Cmax / half-life / AUC(0-inf) / concentration at 0.08 h / concentration at 0.16 h / concentration at 0.25 h / concentration at 0.33 h / concentration at 0.5 h / concentration at 0.75 h / concentration at 1 h / concentration at 1.5 h / concentration at 2 h / concentration at 3 h / concentration at 4 h / concentration at 5 h / concentration at 6 h / concentration at 24 h / concentration at 48 h / dose excreted at 6 h: baboon; for Cmax / half-life / AUC(0-inf) / concentration at 0.08 h / concentration at 0.16 h / concentration at 0.25 h / concentration at 0.33 h / concentration at 0.5 h / concentration at 0.75 h / concentration at 1 h / concentration at 1.5 h / concentration at 2 h / concentration at 3 h / concentration at 4 h / concentration at 5 h / concentration at 6 h / concentration at 24 h / concentration at 48 h: plasma; for Cmax: read-out: Maximum plasma concentration; for half-life: read-out: t1/2 β (converted); for AUC(0-inf): trapezium method, read-out: AUC 0-.infin.; for concentration at 0.08 h / concentration at 0.16 h / concentration at 0.25 h / concentration at 0.33 h / concentration at 0.5 h / concentration at 0.75 h / concentration at 1 h / concentration at 1.5 h / concentration at 2 h / concentration at 3 h / concentration at 4 h / concentration at 5 h / concentration at 6 h / concentration at 24 h / concentration at 48 h: 20 mg/kg; for dose excreted at 6 h: urine, read-out: Excretion in urine at 6 h
Method: (§1) Furthermore, the pharmacokinetic behavior of the products according to the invention was studied in baboons after administration at a dose of 20 mg/kg by intramuscular injection or intravenous injection.
(§2) Blood samples taken at various times after administration are used to determine the plasma concentration of the product studied by microbiological assay.
(§3) It is thus possible to construct the curve showing the plasma concentration as a function of time, and to determine different pharmacokinetic parameters of the compound studied:
(§4) the elimination half-life (t1/2 β) is calculated by the formula [formula] in which β represents the elimination gradient or slope;
(§5) the area under the curve (AUC) is determined by the trapezium method.
(§6) The plasma concentrations obtained with various products of the invention are collated in Tables 4 and 5. They are expressed in μg/ml.

[2] = protein binding by comparing two standard scales in baboon plasma and phosphate buffer; assay type: in vitro ADME; conditions: baboon plasma vs phosphate buffer (pH 7, 0.03M)
Description: Furthermore, the protein binding is obtained by comparing two standard scales, one being prepared in baboon plasma and the other in phosphate buffer (pH 7, 0.03M).

[3] = pharmacokinetic behavior in baboons, 20 mg/kg (Tables 4 and 6); assay type: in vivo; conditions: baboon; for Tmax / Cmax / half-life / AUC(0-t) at 6 h / concentration at 6 h / concentration at 10 min / concentration at 20 min / concentration at 0.5 h / concentration at 0.75 h / concentration at 1 h / concentration at 1.5 h / concentration at 2 h / concentration at 3 h / concentration at 4 h / concentration at 5 h / concentration at 5.5 h: plasma; for Cmax: read-out: Max plasma concentration; for half-life: read-out: t1/2 β; for AUC(0-t) at 6 h: trapezium method; for concentration at 6 h / concentration at 10 min / concentration at 20 min / concentration at 0.5 h / concentration at 0.75 h / concentration at 1 h / concentration at 1.5 h / concentration at 2 h / concentration at 3 h / concentration at 4 h / concentration at 5 h / concentration at 5.5 h / dose excreted at 6 h: 20 mg/kg; for concentration at 0.5 h: 30 minutes; for concentration at 0.75 h: 45 minutes; for concentration at 1 h: 60 minutes; for concentration at 1.5 h: 90 minutes; for concentration at 2 h: 120 minutes; for concentration at 3 h: 180 minutes; for concentration at 4 h: 240 minutes; for concentration at 5 h: 300 minutes; for concentration at 5.5 h: 330 minutes; for dose excreted at 6 h: urine, 6 h (Table 6), read-out: Excretion in the urine
Method: as §1, §2, §3, §4, §5, §6

[4] = test system: Escherichia coli SOL RL 90; experiment: bacteriostatic action in vitro by the dilution method (MIC); assay type: cell-based; conditions: SOLRL90, read-out: minimum inhibitory concentrations (MIC)
Method: (§7) The bacteriostatic action was determined in vitro by the dilution method. The study was carried out on both Gram-positive strains and Gram-negative strains.
(§8) The results for various products according to the invention, expressed as minimum inhibitory concentrations (MIC - μg/ml), are collated in Table 3.

[5] = test system: Klebsiella pneumoniae R30; experiment: as above; assay type: cell-based; conditions: read-out: minimum inhibitory concentrations (MIC)
Method: as §7, §8

Staph. aureus Smith = experiment: as above; assay type: cell-based; conditions: Staphylococcus aureus, read-out: minimum inhibitory concentrations (MIC)
Method: as §7, §8

[6] = test system: Escherichia coli C1/Col E1::Tn3; experiment: as above; assay type: cell-based; conditions: read-out: minimum inhibitory concentrations (MIC)
Method: as §7, §8

[7] = test system: Pseudomonas aeruginosa NCTC 8203; experiment: as above; assay type: cell-based; conditions: NCTC8203, read-out: minimum inhibitory concentrations (MIC)
Method: as §7, §8

[8] = test system: Proteus vulgaris GN 76/C-1; experiment: as above; assay type: cell-based; conditions: GN76, read-out: minimum inhibitory concentrations (MIC)
Method: as §7, §8

Providencia 155 = experiment: as above; assay type: cell-based; conditions: read-out: minimum inhibitory concentrations (MIC)
Method: as §7, §8

[9] = 20 mg/kg (Table 6), read-out: Plasma concentration at 6 h
[10] = 360 minutes, read-out: plasma concentration

## CC(C)(ON=C(C(=O)NC1C(=O)N2C(C(=O)O)=C(COC(=O)c3ccc(NS(=O)(=O)CCN)cc3)CSC12)c1csc(N)n1)C(=O)O (stereo not shown) [C, reference compound]
[1]
  Plasma concentration at 24 h: 7.7 µg/mL
  Plasma concentration at 48 h: 0.6 µg/mL
  Cmax: 233 µg/mL
  half-life: 6.3 h
  AUC(0-inf): 1210 µg·h/mL
  concentration at 0.08 h: 233 µg/mL
  concentration at 0.16 h: 213 µg/mL
  concentration at 0.25 h: 190 µg/mL
  concentration at 0.33 h: 170 µg/mL
  concentration at 0.5 h: 124 µg/mL
  concentration at 0.75 h: 121 µg/mL
  concentration at 1 h: 120 µg/mL
  concentration at 1.5 h: 112 µg/mL
  concentration at 2 h: 98.4 µg/mL
  concentration at 3 h: 72.9 µg/mL
  concentration at 4 h: 68.7 µg/mL
  concentration at 5 h: 62.1 µg/mL
  concentration at 6 h: 54.4 µg/mL
  dose excreted at 6 h: 18%
[1]; 24 hours
  concentration at 24 h: 7.7 µg/mL
[1]; 48 hours
  concentration at 48 h: 0.6 µg/mL

## CC(C)(ON=C(C(=O)NC1C(=O)N2C(C(=O)O)=C(COC(=O)c3ccc(NC(=O)CN)cc3)CSC12)c1csc(N)n1)C(=O)O (stereo not shown) [Product A, reference compound]
[2]
  fraction unbound: 0.55
[3]; 20 mg/kg (Table 6)
  Tmax: 0.75 h
  Cmax: 69.5 µg/mL
  half-life: 3.25 h
  AUC(0-t) at 6 h: 284 µg·h/mL
[3]; [9]
  concentration at 6 h: 17.3 µg/mL
[3]
  concentration at 10 min: 20.8 µg/mL
  concentration at 20 min: 36.8 µg/mL
  concentration at 0.5 h: 44.4 µg/mL
  concentration at 0.75 h: 59.3 µg/mL
  concentration at 1 h: 60 µg/mL
  concentration at 1.5 h: 55.5 µg/mL
  concentration at 2 h: 53.3 µg/mL
  concentration at 3 h: 40 µg/mL
  concentration at 4 h: 36.2 µg/mL
  concentration at 5 h: 27.2 µg/mL
  concentration at 5.5 h: 23.7 µg/mL
  dose excreted at 6 h: 23%
[3]; [10]
  concentration at 6 h: 17.3 µg/mL

## CC(C)(ON=C(C(=O)NC1C(=O)N2C(C(=O)O)=C(COC(=O)c3ccc(NC(=O)CCN)cc3)CSC12)c1csc(N)n1)C(=O)O (stereo not shown) [Product B, reference compound]
[2]
  fraction unbound: 0.52
[3]; 20 mg/kg (Table 6)
  Tmax: 1.5 h
  Cmax: 24.1 µg/mL
  half-life: 1.65 h
  AUC(0-t) at 6 h: 87.9 µg·h/mL
[3]; [9]
  concentration at 6 h: 4.8 µg/mL
[3]
  concentration at 10 min: 8.5 µg/mL
  concentration at 20 min: 16.4 µg/mL
  concentration at 0.5 h: 16.9 µg/mL
  concentration at 0.75 h: 17.6 µg/mL
  concentration at 1 h: 20.7 µg/mL
  concentration at 1.5 h: 24.1 µg/mL
  concentration at 2 h: 20.7 µg/mL
  concentration at 3 h: 17.6 µg/mL
  concentration at 4 h: 12.5 µg/mL
  concentration at 5 h: 8.3 µg/mL
  concentration at 5.5 h: 6.8 µg/mL
  dose excreted at 6 h: 18%
[3]; [10]
  concentration at 6 h: 4.8 µg/mL

## CO/N=C(\C(=O)NC1C(=O)N2C(C(=O)O)=C(COC(=O)c3ccc(NC(=O)CN)c(O)c3)CSC12)c1csc(N)n1 (stereo not shown) [SR 43852]
[4]
  MIC: 0.25 µg/mL (≈ 0.413 µM)
[5]
  MIC: 4 µg/mL (≈ 6.6 µM)
Staph. aureus Smith
  MIC: 0.25 µg/mL (≈ 0.413 µM)
[6]
  MIC: 0.06 µg/mL (≈ 0.0991 µM)
[7]
  MIC: 2 µg/mL (≈ 3.3 µM)
[8]
  MIC: 16 µg/mL (≈ 26.4 µM)
Providencia 155
  MIC: 2 µg/mL (≈ 3.3 µM)

## CO/N=C(\C(=O)NC1C(=O)N2C(C(=O)O)=C(COC(=O)c3ccc(NC(=O)CCN)c(O)c3)CSC12)c1csc(N)n1 (stereo not shown) [SR 43853]
[4]
  MIC: 0.25 µg/mL (≈ 0.403 µM)
[5]
  MIC: 4 µg/mL (≈ 6.46 µM)
Staph. aureus Smith
  MIC: 0.25 µg/mL (≈ 0.403 µM)
[6]
  MIC: 0.06 µg/mL (≈ 0.0968 µM)
[7]
  MIC: 2 µg/mL (≈ 3.23 µM)
[8]
  MIC: 16 µg/mL (≈ 25.8 µM)
Providencia 155
  MIC: 1 µg/mL (≈ 1.61 µM)

## CO/N=C(\C(=O)NC1C(=O)N2C(C(=O)O)=C(COC(=O)c3ccc(NC(=O)C(N)CCN)c(O)c3)CSC12)c1csc(N)n1 (stereo not shown) [SR 44218]
[4]
  MIC: 0.5 µg/mL (≈ 0.771 µM)
[5]
  MIC: 8 µg/mL (≈ 12.3 µM)
Staph. aureus Smith
  MIC: 0.5 µg/mL (≈ 0.771 µM)
[6]
  MIC: 0.25 µg/mL (≈ 0.385 µM)
[7]
  MIC: 4 µg/mL (≈ 6.17 µM)
[8]
  MIC: 16 µg/mL (≈ 24.7 µM)
Providencia 155
  MIC: 2 µg/mL (≈ 3.08 µM)

## CO/N=C(\C(=O)NC1C(=O)N2C(C(=O)O)=C(COC(=O)c3ccc(NC(=O)[C@@H](N)CCCN)c(O)c3)CSC12)c1csc(N)n1 (stereo partly shown) [SR 44219]
[4]
  MIC: 0.12 µg/mL (≈ 0.181 µM)
[5]
  MIC: 4 µg/mL (≈ 6.04 µM)
Staph. aureus Smith
  MIC: 0.5 µg/mL (≈ 0.754 µM)
[6]
  MIC: 0.12 µg/mL (≈ 0.181 µM)
[7]
  MIC: 1 µg/mL (≈ 1.51 µM)
[8]
  MIC: 16 µg/mL (≈ 24.1 µM)
Providencia 155
  MIC: 1 µg/mL (≈ 1.51 µM)

## CO/N=C(\C(=O)NC1C(=O)N2C(C(=O)O)=C(COC(=O)c3ccc(NS(=O)(=O)CCN)c(O)c3)CSC12)c1csc(N)n1 (stereo not drawn) [SR 44337, 7-[2-(2-Aminothiazol-4-yl)-2-methoxyiminoacetamido]-3-[[4-(2-aminoethylsulfonamido)-3-hydroxybenzoyl]oxymethyl]-3-cephem-4-carboxylic acid bis-trifluoroacetate, syn isomer]
[4]
  MIC: 0.5 µg/mL (≈ 0.763 µM)
[5]
  MIC: 4 µg/mL (≈ 6.1 µM)
Staph. aureus Smith
  MIC: 0.25 µg/mL (≈ 0.381 µM)
[6]
  MIC: 0.06 µg/mL (≈ 0.0915 µM)
[7]
  MIC: 2 µg/mL (≈ 3.05 µM)
[8]
  MIC: 1 µg/mL (≈ 1.53 µM)
Providencia 155
  MIC: 1 µg/mL (≈ 1.53 µM)
[1]
  increase in area under the curve relative to reference product C: 2.7 fold
  Plasma concentration at 24 h: 39.0 µg/mL
  Plasma concentration at 48 h: 14.4 µg/mL
  Cmax: 266 µg/mL
  half-life: 13.9 h
  AUC(0-inf): 3320 µg·h/mL
  concentration at 0.08 h: 266 µg/mL
  concentration at 0.16 h: 251 µg/mL
  concentration at 0.25 h: 238 µg/mL
  concentration at 0.33 h: 206 µg/mL
  concentration at 0.5 h: 194 µg/mL
  concentration at 0.75 h: 190 µg/mL
  concentration at 1 h: 182 µg/mL
  concentration at 1.5 h: 164 µg/mL
  concentration at 2 h: 153 µg/mL
  concentration at 3 h: 152 µg/mL
  concentration at 4 h: 147 µg/mL
  concentration at 5 h: 141 µg/mL
  concentration at 6 h: 120 µg/mL
  dose excreted at 6 h: 14%
[1]; 24 hours
  plasma concentration at 24 hours, times higher than reference product C: 5 times
  concentration at 24 h: 39 µg/mL
[1]; 48 hours
  plasma concentration at 48 hours, times higher than reference product C: 24 times
  concentration at 48 h: 14.4 µg/mL
